In article PMC6891695, “Evaluation of Antifouling Potential and Ecotoxicity of Secondary Metabolites Derived from Red Algae of the Genus Laurencia” (Marine Drugs, 2019):
Where two headings read alike, the source gives them in different places.

Legend:
cyprids of A. amphitrite = assay: whole plant or invertebrate; format: in vivo; conditions: for EC50 / IC50: Amphibalanus amphitrite; for EC50: read-out: EC50 No Metamorphosis; for IC50: read-out: IC50 Settlement; for EC50 values for settlement inhibition of barnacle cyprids (in words): consistently, 24-72 h
Experimental: (§1) Adult A. amphitrite (Cirripedia, Balanidae) were collected from boat docks at Port Mikrolimano and Floisvos, Athens, Greece. Animals were cleaned of epibionts with a small hard brush and meticulously identified as individuals of the species. Adult barnacles were kept in separate aerated glass tanks (20 L) containing 200-μm filtered natural seawater at 27 °C and a 12:12 L:D photoperiod. Tanks were fed with 24-h hatched Artemia sp. (Branchiopoda) nauplii and Tetraselmis suecica (Chlorodendrophyceae) and Skeletonema costatum (Bacillariophyceae) algae each day and seawater was changed on alternate days. Upon stress to induce oviposition (exposure to air for 24 h or immersion in fresh water for 5 h), adults were returned to seawater for larval release. Hatched nauplii were attracted to a point light source, collected and placed into a beaker containing 2 or 3 L of 0.7 μm GF/F (GE Healthcare, Little Chalfont, UK )-filtered natural seawater at a density of approximately 1–2 nauplii/mL with gentle aeration. Nauplii were maintained at 27 °C at a 12:12 L:D photoperiod on a diet of C. gracilis (Bacillariophyceae) provided at a density of 2 × 10^5 cells/mL. Cultured in these conditions, nauplii metamorphosed to cyprids in 5 days. Aliquots of these cyprids were collected with a wide-mouthed Pasteur pipette and aged at 4 °C for 1 day prior to use in settlement assays. Only batches of cyprids that were active and had numerous oil cells, representing energy reserves, were used in settlement assays.
(§2) Assays were conducted by adding 10 cyprids into individual wells of a 24-well polystyrene sterile microplate (Orange Scientific, Braine l’Alleud, Belgium) with 2 mL of artificial sea water (ASW) (25‰) and various concentrations of the chemical compounds as listed in Table 1. These experiments were repeated at least three times with four replicates for each concentration of any given compound (n = 120 cyprids/compound). Stock solutions for all compounds were prepared in methanol (Scharlab, Barcelona, Spain) and serial dilutions were prepared in 0.7 μm (GF/F, GE Healthcare, Little Chalfont, UK), filtered sea water to have a final concentration of 2.5% methanol in each assay solution. Plates were covered and sealed with Parafilm® to avoid evaporation and incubated at 25 °C away from any light source and examined after 24, 48 and 72 h. Each animal was inspected under a stereomicroscope and its condition was recorded. […] Both permanently attached and metamorphosed individuals were counted as settled or juveniles. The remainder were counted as ‘no metamorphosis’, i.e. animals that responded to light touch and were still cyprids at the end of the experiments with no overt signs of metamorphosis.
(§3) For EC50 or IC50 (the concentration that results in 50% stimulation or inhibition relative to the control) calculations in GraphPad Prism v.6, all data were fitted to the curve according to the following models for normalized response: Y = 100/(1 + 10^((X − LogIC50))) or Y = 100/(1 + 10^((LogEC50 − X))) depending on the trend of the curve.

in vivo = format: in vivo; conditions: Amphibalanus amphitrite, in vivo, read-out: LC50 Mortality; for LC50 at 24 h: 24 h exposure; for LC50 at 48 h: 48 h exposure; for LC50 at 72 h: 72 h exposure
Experimental: as §1, §2, §3

[1] = Artemia salina toxicity assay; format: in vivo; conditions: Artemia salina, in vivo, read-out: EC50 Artemia salina toxicity (mortality)
Experimental: The short-term toxicity assay with A. salina nauplii was used to determine the toxicity of secondary metabolites. Hatching of A. salina nauplii was carried out in ASW (35‰) using 0.5 g of cysts incubated in 500 mL seawater at a temperature of 25 ± 1 °C and lateral illumination (1000 Lux). All cysts were kept in continuous suspension with aeration and 24 h later hatched larvae (instar I) were harvested. Toxicity assays were carried out in three independent experiments in 24-well plates with four replicates of each tested concentration. Ten nauplii per well were transferred with a Pasteur pipette into the 24-well plates and each well was filled with 2 mL of ASW and 50 μL of various concentrations of the tested compounds in methanol. Control treatments received 50 μL of methanol. Plates were incubated in the dark at 25 ± 1 °C for 48 h. Mortality was assessed by recording the number of individuals with no movement of their appendages within 10 seconds and is expressed as the percentage of the total number of assessed individuals for each concentration.
as §3

Chaetoceros gracilis = Chaetoceros gracilis toxicity (phytoplankton growth) assay; format: cell-based; conditions: 96 h; for EC50: Chaetoceros neogracilis
Experimental: For phytoplankton growth toxicity assays, the criterion for assay validity was that the cell count of the negative control after 96 h should be ≥2 × 10^5 cells/mL [40].
The centric marine diatom C. gracilis Schütt (strain CCMP1315) was grown photoautotrophically in autoclaved artificial seawater (sea salts; Sigma-Aldrich, St. Louis, MO, USA) (30‰) supplemented with F/2 (half-strength medium f as subsequently modified) in 100 mL medium at 20 °C and with ambient air bubbled in the media. By monitoring cell density, an adjusted culture of >1 × 10^6 cells/mL was used for the toxicity assays. At 96 h, a 0.9 mL aliquot of each treatment was sampled, mixed with 0.1 mL Lugol and cell density was counted. Experiments were assumed valid if cell count in the control after 96 h was […].
as §3

Compound	EC50 (cyprids of A. amphitrite; 24 h)	IC50 (cyprids of A. amphitrite; 24 h)	EC50 (cyprids of A. amphitrite; 48 h)	IC50 (cyprids of A. amphitrite; 48 h)	IC50 (cyprids of A. amphitrite; 72 h)	EC50 values for settlement inhibition of barnacle cyprids (in words) (cyprids of A. amphitrite)	LC50 at 24 h (in vivo)	LC50 at 48 h (in vivo)	LC50 at 24 h [1]	LC50 at 48 h [1]	C. gracilis exclusion criterion (EC50 compared with bromosphaerol) (Chaetoceros gracilis)	EC50 (Chaetoceros gracilis)	EC50 (cyprids of A. amphitrite; 72 h)	LC50 at 72 h (in vivo)
CC1C(Br)C(=O)C(C)C23CCC2(C)C(Br)CC13C (stereo not shown) [Compound 11, perforatone]	0.003 µM	0.003 µM	0.002 µM	0.002 µM	0.002 µM	sub-micromolar	56.1 µM	38.4 µM	10.1 µM	1.57 µM	did not pass this criterion	4.52 µM	–	–
C=CC(C)(O)CC[C@H](Br)[C@@]1(C)CC[C@H](Br)C(C)(C)O1 (stereo partly shown) [Compound 13, obtusenol]	46.4 µM	1.49 µM	64.7 µM	1.06 µM	1.02 µM	–	29.8 µM	849 µM	–	–	–	–	78.9 µM	8.15 µM
CC1(C(Br)CO)CC=C2C(C1)C(O)CC1C2(C)CCC(Br)C1(C)C (stereo not shown) [Compound 14, 3,15-dibromo-7,16-dihydroxy-isopimar-9(11)-ene]	6.42 µM	0.011 µM	5.15 µM	0.065 µM	0.028 µM	sub-micromolar	1.96 µM	3.61 µM	34.2 µM	15.1 µM	did not pass this criterion	1.61 µM	7.72 µM	3.54 µM
CC(=O)OCC(Br)C1(C)CC=C2C(C1)C(O)CC1C2(C)CC(OC(C)=O)C2CC21C (stereo not shown) [Compound 15, deoxyparguerol 16-acetate]	63.6 µM	2.84 µM	55.1 µM	7.02 µM	5.37 µM	–	31.7 µM	33.4 µM	–	–	–	–	73 µM	34.6 µM
C=CC(C)(O)CCC1C(=C)CCC(Br)C1(C)CCC(O)C(C)(C)Cl (stereo not shown) [Compound 16]	58.3 µM	1.42 µM	49.1 µM	1.96 µM	2.2 µM	–	> 1000 µM	> 1000 µM	–	–	–	–	58.5 µM	> 1000 µM
C=CC(C)(O)CCC1C(=C)CCC(Br)C1(C)CCC(Br)C(C)(C)O (stereo not shown) [Compound 17]	0.057 µM	0.634 µM	0.921 µM	0.806 µM	1.19 µM	–	–	–	–	–	–	–	101 µM	> 1000 µM
CC(=CC=CC1(C)CCC(Br)C(C)(C)O1)C1CCC(C)(O)C(Br)C1 (stereo not shown) [Compound 20, O^11,15-cyclo-14-bromo-14,15-dihydrorogiol-3,11-diol]	47 µM	2.57 µM	11.3 µM	2.89 µM	3.32 µM	–	–	–	–	–	–	–	10.1 µM	138 µM
C#CC=CCC1OC(C=CC)CC=CCC1Cl (stereo not shown) [Compound 21, (3Ε)-laurenyne]	7.42 µM	3.21 µM	18.2 µM	7.37 µM	0.575 µM	–	0.575 µM	1.12 µM	–	–	–	–	0.001 µM	18.6 µM
CCC=CCC(Br)C(CC1OC(C=C=CBr)CC1OC(C)=O)OC(C)=O (stereo not shown) [Compound 23, graciosallene]	0.276 µM	0.237 µM	10.3 µM	9.18 µM	9.7 µM	–	–	–	–	–	–	–	11.2 µM	–
